US6355649B1, “Method of treating seborrhea with 5-α reductase inhibitors” (priority 1993, dated 2002)

What was measured:
[1] = Solubility of finasteride polymorphic crystal forms; assay type: physicochemical; conditions: 25° C.
Protocol: Finasteride Form I can be prepared by dissolving finasteride in glacial acetic acid (ca. 100 mg/ml) and adding water with stirring until the weight % of water equals or exceeds 84%. The resulting solid phase is collected by filtration and dried under vacuum and at about 50° C. […] The x-ray powder diffraction pattern is characterized by d-spacings of 6.44, 5.69, 5.36, 4.89, 4.55, 4.31, 3.85, 3.59 and 3.14. […] The solubilities in water and cyclohexane at 25° C. are 0.05+0.02 and 0.27+0.05 mg/gm respectively. In addition, Form I of finasteride can be prepared by recrystallization from dry (H2O<1 mg/ml) ethyl acetate and isopropyl acetate. The isolated solids are dried under vacuum at about 50° C. and have the same physical characterization data as given above.
Form II of finasteride can be prepared by dissolving finasteride in glacial acetic acid (ca. 100 mg/ml) and adding water with stirring until the weight % of water equals about 75% but not in excess of 80%. The resulting solid phase is collected by filtration and dried under vacuum and at about 100° C. […] The x-ray powder diffraction pattern is characterized by d-spacings of 14.09, 10.36, 7.92, 7.18, 6.40, 5.93, 5.66, 5.31, 4.68, 3.90, 3.60 and 3.25. […] The solubilities in water and cyclohexane at 25° C. are 0.16+0.02 and 0.42+0.05 mg/gm respectively. In addition, Form II of finasteride can be prepared by recrystallization from ethyl acetate containing between 2 to 30 mg/ml of water and isopropyl acetate containing between 2 to 15 mg/ml of water. The isolated solids are dried under vacuum at about 80° C. and have the same physical characterization data as given above. Form II can also be prepared by heating Form I up to about 150° C., holding for about one hour and cooling back to room temperature. The Form II prepared in this manner has the same physical characterization data as given above.

[2] = tested on: hair growth (androgenic alopecia); assay: Macrophotography and global photography procedure for detection of hair growth; assay type: in vivo, patients; conditions: dosages below 5 mg/day per patient, for example 1 mg/day or 0.2 mg/day; "it can be shown"
Protocol: Location: ID card Haircount target area
In these clinical photographs, the only variable allowed is the haircount. Film emulsion, lighting, framing, exposure, and reproduction ratios are held constant.
1. The haircount area on the patient is prepared as follows: A small (˜1 mm) dot tattoo is placed at the beginning of the study at the leading edge of the bald area directly anterior to the center of the vertex bald spot, using a commercial tattooing machine or manually (needle and ink). An area approximately one square inch in size, centered at the tattoo at the leading edge of the balding area, is clipped short (˜2 mm). Cut hairs are removed from the area to be photographed, using tape. Compressed air and/or ethanol wipes may also be used to facilitate removal of cut hairs.
2. […]
A trained technician places a transparency over the photographic print and, using a felt tip pen, places a black dot over each visible hair. The dot map transparency is then counted using image analysis with computer assistance.
Photographs are coded with a random number corresponding to study site, visit number and patient allocation number to insure blinding to time. At Month 6, baseline and Month 6 photographs are counted and data analyzed for interim analysis. At Month 12, baseline, Month 6 and Month 12 photographs are counted and data analyzed for the primary endpoint. […]

[3] = tested on: DHT content in scalp tissue; assay: DHT content in scalp tissue after oral finasteride in men with male pattern baldness; assay type: in vivo; conditions: orally for 6 weeks, 0.2 mg/day, 1.0 mg/day and 5.0 mgs/day
Protocol: In another test, finasteride was orally administered for 6 weeks to men with male pattern baldness at doses of 0.2 mg/day, 1.0 mg/day and 5.0 mgs/day.

Compound | solubility in cyclohexane [1] [mg/gm] | solubility in water [1] [mg/gm] | hair growth / treatment of androgenic alopecia [2] | DHT content in scalp tissue [3]
CC(C)(C)NC(=O)[C@H]1CCC2C3CCC4NC(=O)C=C[C@]4(C)C3CC[C@@]21C (stereo partly drawn) [Form I, 17β-(N-tert-butylcarbamoyl)-4-aza-5α-androst-1-ene-3-one] | 0.27 ± 0.05 | 0.05 ± 0.02 | – | –
CC(C)(C)NC(=O)[C@H]1CCC2C3CCC4NC(=O)C=C[C@]4(C)C3CC[C@@]21C (stereo partly drawn) [Form II, 17β-(N-tert-butylcarbamoyl)-4-aza-5α-androst-1-ene-3-one] | 0.42 ± 0.05 | 0.16 ± 0.02 | – | –
CC(C)(C)NC(=O)[C@H]1CC[C@H]2[C@@H]3CC[C@H]4NC(=O)C=C[C@]4(C)[C@H]3CC[C@]12C [finasteride, 17β-(N-tert-butylcarbamoyl)-4-aza-5α-androst-1-ene-3-one] | – | – | promote hair growth | significant reduction
